SMILES strings stand for the structures. Where a name gives a salt, the structure may show the parent alone. A value given as a limit tells only on which side of the number the result lay.

This note sets out measurements from US11382918B2, “Methods for treating Huntington's Disease” (PTC Therapeutics, Inc., priority 2017, dated 2022).

The subject of this experiment is Endogenous Huntingtin Protein (HTT). As to the kind of experiment: Endogenous Huntingtin Protein Assay (ELISA-based MSD electrochemiluminescence). It is filed as cell-based. The following applies: Table 1. How it is done:
Compounds of Formula (I) were tested using the Meso Scale Discovery (MSD) Assay provided in International Application No. PCT/US2016/066042, filed on Dec. 11, 2016 and claiming priority to U.S. Provisional Application 62/265,652 filed on Dec. 10, 2015, published as International Publication No. WO 2017/100726 on Jun. 15, 2017, the entire contents of which are incorporated herein by reference.
The Endogenous Huntingtin Protein assay used in Example 1 was developed using the ELISA-based MSD electrochemiluminescence assay platform.
Endogenous Huntingtin Protein Assay
Meso Scale Discovery (MSD) 96-well or 384-well plates were coated overnight at 4° C. with MW1 (expanded polyglutamine) or MAB2166 monoclonal antibody (for capture) at a concentration of 1 μg/mL in PBS (30 μL per well). Plates were then washed three times with 300 µL wash buffer (0.05% Tween-20 in PBS) and blocked (100 μL blocking buffer; 5% BSA in PBS) for 4-5 hours at room temperature with rotational shaking and then washed three times with wash buffer.
Samples (25 μL) were transferred to the antibody-coated MSD plate and incubated overnight at 4° C. After removal of the lysates, the plate was washed three times with wash buffer, and 25 μL of #5656S (Cell signaling; rabbit monoclonal) secondary antibody (diluted to 0.25 μg/mL in 0.05% Tween-20 in blocking buffer) was added to each well and incubated with shaking for 1 Hour at room temperature. Following incubation with the secondary antibody, the wells were rinsed with wash buffer after which 25 μL of goat anti-rabbit SULFO TAG secondary detection antibody (required aspect of the MSD system) (diluted to 0.25 μg/mL in 0.05% Tween-20 in blocking buffer) was added to each well and incubated with shaking for 1 hour at room temperature. After rinsing three times with wash buffer, 150 μL of read buffer T with surfactant (MSD) were added to each empty well, and the plate was imaged on a SI 6000 imager (MSD) according to manufacturers' instructions provided for 96- or 384-well plates.
(ELISA stands for enzyme-linked immunosorbent assay.)
In general, IC50 refers to the concentration that gives 50% inhibition. `CCc1nc(C)cn2nc(-c3cc(=O)n4cc(N5CCN(CCO)[C@H](C)C5)ccc4n3)cc12` [compound 632, 2-(4-ethyl-6-methylpyrazolo[1,5-a]pyrazin-2-yl)-7-[(3R)-4-(2-hydroxyethyl)-3-methylpiperazin-1-yl]-4H-pyrido[1,2-a]pyrimidin-4-one] displayed an IC50 of 1000 to 3000 nM.

Compound `Cc1cn2cc(-c3cc(=O)n4cc(C5CCNCC5)ncc4n3)cc(Cl)c2n1` [compound 587, 2-(8-chloro-2-methylimidazo[1,2-a]pyridin-6-yl)-7-(piperidin-4-yl)-4H-pyrazino[1,2-a]pyrimidin-4-one] gave an IC50 of 100 to 500 nM.

As to `Cc1cn2cc(-c3cc(=O)n4cc(N5CCNCC5)ccc4n3)nc2cn1` [compound 74, 2-(6-methylimidazo[1,2-a]pyrazin-2-yl)-7-(piperazin-1-yl)-4H-pyrido[1,2-a]pyrimidin-4-one], the IC50 was 1000 to 3000 nM. To `Cc1cn2cc(-c3cc(=O)n4cc(C5CCN(C)CC5)ncc4n3)ccc2n1` [compound 579, 2-(2-methylimidazo[1,2-a]pyridin-6-yl)-7-(1-methylpiperidin-4-yl)-4H-pyrazino[1,2-a]pyrimidin-4-one] belongs 3000 to 33000 nM. For `Cc1cn2ccc(-c3cc(=O)n4cc(N5CCNCC5)ccc4n3)cc2n1` [compound 555, 2-(2-methylimidazo[1,2-a]pyridin-7-yl)-7-(piperazin-1-yl)-4H-pyrido[1,2-a]pyrimidin-4-one], the IC50 lay in the range of 3000 to 33000 nM.

`Cc1nc2cc(-c3cc(=O)n4cc(N5CCN[C@@H](C)C5)ccc4n3)ccc2s1` [compound 135, 2-(2-methyl-1,3-benzothiazol-5-yl)-7-[(3S)-3-methylpiperazin-1-yl]-4H-pyrido[1,2-a]pyrimidin-4-one] returned an IC50 of 1000 to 3000 nM. In the case of `Cn1cc(-c2cc(=O)n3cc(N4CCNCC4)ccc3n2)cn1` [compound 192, 2-(1-methyl-1H-pyrazol-4-yl)-7-(piperazin-1-yl)-4H-pyrido[1,2-a]pyrimidin-4-one], the IC50 lay within 3000 to 33000 nM. With `Cc1nc2ccc(-c3cc(=O)n4cc(C5=CCNCC5)ncc4n3)cc2o1` [compound 421, 2-(2-methyl-1,3-benzoxazol-6-yl)-7-(1,2,3,6-tetrahydropyridin-4-yl)-4H-pyrazino[1,2-a]pyrimidin-4-one hydrochloride(1:1)], the IC50 lay in the range of 3000 to 33000 nM. Take `O=c1cc(-c2cncc(Cl)c2)nc2ccc(N3CCNCC3)cn12` [compound 94, 2-(5-chloropyridin-3-yl)-7-(piperazin-1-yl)-4H-pyrido[1,2-a]pyrimidin-4-one]: the IC50 lay within 3000 to 33000 nM. To `Cc1cn2nc(-c3cc(=O)n4cc(N5CCC6C(CCN6CCO)C5)ccc4n3)cc2c(C)n1` (stereo not shown) [compound 624, 2-(4,6-dimethylpyrazolo[1,5-a]pyrazin-2-yl)-7-[1-(2-hydroxyethyl)octahydro-5H-pyrrolo[3,2-c]pyridin-5-yl]-4H-pyrido[1,2-a]pyrimidin-4-one] belongs 500 to 1000 nM; to `Cc1cc(-c2cc(=O)n3cc(N4CCNCC4)ccc3n2)cc2cnn(C)c12` [compound 776, 2-(1,7-dimethyl-1H-indazol-5-yl)-7-(piperazin-1-yl)-4H-pyrido[1,2-a]pyrimidin-4-one], 3000 to 33000 nM. In the case of `CCCc1nc(C)cn2nc(-c3cc(=O)n4cc(C5CCNCC5)ccc4n3)cc12` [compound 766, 2-(6-methyl-4-propylpyrazolo[1,5-a]pyrazin-2-yl)-7-(piperidin-4-yl)-4H-pyrido[1,2-a]pyrimidin-4-one] it was 500 to 1000 nM; in that of `CCc1nc(C)cn2nc(-c3cc(=O)n4cc(N5CCN[C@@H](C)C5)ccc4n3)cc12` [compound 635, 2-(4-ethyl-6-methylpyrazolo[1,5-a]pyrazin-2-yl)-7-[(3S)-3-methylpiperazin-1-yl]-4H-pyrido[1,2-a]pyrimidin-4-one], 1000 to 3000 nM; in that of `CCN1CCC(c2cn3c(=O)cc(-c4cc(F)c5nc(C)cn5c4)nc3c(C)n2)CC1` [compound 877, 7-(1-ethylpiperidin-4-yl)-2-(8-fluoro-2-methylimidazo[1,2-a]pyridin-6-yl)-9-methyl-4H-pyrazino[1,2-a]pyrimidin-4-one], below 100 nM. In the case of `Cc1cn2nc(-c3cc(=O)n4cc(N5CC(CN(C)C)C5)ccc4n3)cc2c(C)n1` [compound 780, 7-{3-[(dimethylamino)methyl]azetidin-1-yl}-2-(4,6-dimethylpyrazolo[1,5-a]pyrazin-2-yl)-4H-pyrido[1,2-a]pyrimidin-4-one] it was 1000 to 3000 nM. Regarding `Cc1cc(-c2cc(=O)n3cc(N4CCN(C)CC4)ccc3n2)cc2cnn(C)c12` [compound 846, 2-(1,7-dimethyl-1H-indazol-5-yl)-7-(4-methylpiperazin-1-yl)-4H-pyrido[1,2-a]pyrimidin-4-one], the IC50 was 3000 to 33000 nM. To `Cc1nc2ccc(-c3cc(=O)n4cc(N5CCNCC5)ccc4n3)cn2c1C` [compound 125, 2-(2,3-dimethylimidazo[1,2-a]pyridin-6-yl)-7-(piperazin-1-yl)-4H-pyrido[1,2-a]pyrimidin-4-one] belongs 3000 to 33000 nM; to `Cc1cc(-c2cc(=O)n3cc(N4CCN[C@@H](C)C4)ccc3n2)cc2cn(C)nc12` [compound 750, 2-(2,7-dimethyl-2H-indazol-5-yl)-7-[(3S)-3-methylpiperazin-1-yl]-4H-pyrido[1,2-a]pyrimidin-4-one], 3000 to 33000 nM. For `CCN1CC=C(c2ccc3nc(-c4cc5c(C)nc(C)cn5n4)cc(=O)n3c2)CC1` [compound 351, 2-(4,6-dimethylpyrazolo[1,5-a]pyrazin-2-yl)-7-(1-ethyl-1,2,3,6-tetrahydropyridin-4-yl)-4H-pyrido[1,2-a]pyrimidin-4-one], the IC50 lay in the range of 3000 to 33000 nM. `Cn1cc2cc(-c3cc(=O)n4cc(C5CCN(CCO)CC5)ccc4n3)ccc2n1` [compound 613, 7-[1-(2-hydroxyethyl)piperidin-4-yl]-2-(2-methyl-2H-indazol-5-yl)-4H-pyrido[1,2-a]pyrimidin-4-one]: the IC50 is 1000 to 3000 nM. To `Cc1cn2cc(-c3cc(=O)n4cc(C5CCNCC5)ccc4n3)ccc2n1` [compound 438, 2-(2-methylimidazo[1,2-a]pyridin-6-yl)-7-(piperidin-4-yl)-4H-pyrido[1,2-a]pyrimidin-4-one] belongs 500 to 1000 nM; to `Cc1cn2cc(-c3cc(=O)n4cc(N5CCN(C)CC5)ccc4n3)cc(CO)c2n1` [compound 677, 2-[8-(hydroxymethyl)-2-methylimidazo[1,2-a]pyridin-6-yl]-7-(4-methylpiperazin-1-yl)-4H-pyrido[1,2-a]pyrimidin-4-one], 3000 to 33000 nM; to `Cc1cn2nc(-c3cc(=O)n4cc(C5CCNCC5)cc(C)c4n3)cc2c(C)n1` [compound 671, 2-(4,6-dimethylpyrazolo[1,5-a]pyrazin-2-yl)-9-methyl-7-(piperidin-4-yl)-4H-pyrido[1,2-a]pyrimidin-4-one], 1000 to 3000 nM. To `Cc1cn2cc(-c3cc(=O)n4cc(N5CCN[C@@H](C)C5)ccc4n3)nc2cn1` [compound 75, 2-(6-methylimidazo[1,2-a]pyrazin-2-yl)-7-[(3S)-3-methylpiperazin-1-yl]-4H-pyrido[1,2-a]pyrimidin-4-one] belongs 1000 to 3000 nM; to `Cc1cn2nc(-c3cc(=O)n4cc(N5CCNCC5)cc(C)c4n3)cc2c(C)n1` [compound 720, 2-(4,6-dimethylpyrazolo[1,5-a]pyrazin-2-yl)-9-methyl-7-(piperazin-1-yl)-4H-pyrido[1,2-a]pyrimidin-4-one], 3000 to 33000 nM.
